Reference: patent US10208007B2, “Use of strigolactones and strigolactone analogs for treating proliferative conditions” (The State of Israel, Ministry of Agriculture & Rural …, priority 2011, dated 2019)
One block for each molecule: values may come before it.

Tests used:
[1] = test system: MCF-7 mammospheres; assay: cells; format: cell-based, human; conditions: for Mammosphere numbers (>100 μM), percentage of vehicle treated control: 5 days
Description: (§1) Given the similar effects the other strigolactone analogs had on breast cancer cell line growth compared to GR-24, we anticipated that the strigolactone analogs would also have similar effects on MCF-7 primary mammosphere formation (FIG. 10): MCF-7 cells were seeded in MEBM media into low attachment, 96 well plates in duplicate at 3000 cells per well. The same day the indicated doses of strigolactone analogs were added. After 7 days representative images were taken. […] Like GR-24, the doses required to inhibit mammosphere formation are lower than that required to inhibit proliferation in monolayer cultures (5 fold lower; ST-362 and MEB-55, 3 fold lower; ST-357). To determine if the sensitivity to strigolactone analogs treatments was specific to mammosphere formation or whether it extended to the integrity and survival of mature mammospheres, MCF-7 mammospheres were grown in the absence of strigolactone analogs and after 7 days (or once mammospheres had reached a mean diameter of over […]), strigolactone analogs were added to the growth media (FIG. 10) at the indicated doses. MCF-7 cells were seeded in MEBM media into low attachment, 96 well plates in duplicate at 3000 cells per well and primary mammospheres left to grow for 7 days. At which time the indicated doses of strigolactone analogs were added to the media. FIG. 11A is a representative image of mammospheres treated with 5 ppm concentrations, showing dissociation after 2 days of exposure to strigolactone analogs. […] Following […] treatment, mammospheres were monitored visually after 24 and 48 hours. No changes were observed following 24 hours of strigolactone analogs treatment. […] At 5 ppm concentrations EG-5, EG-9C, ST-357, ST-362 and MEB-55 reduce mammosphere numbers from 86.7+6.8 (vehicle control) to 23+5, 38+6.2, 6+2, 8.3+3.5 and 9.3+1.5%, respectively. At 2.5 ppm concentrations, mammosphere numbers were reduced to 35+6.9 (EG-5), 52+12.3 (EG-9C), 22+8.5 (ST-357), 6+1.7 (ST-362) and 20.7+8.6 (MEB-55). […] XTT viability assays were also carried out on dissociated mammospheres. At concentrations of 5 ppm, EG-5, ST-362 and MEB-55 reduced viability to 3.7+0.5, 25.5+8.8 and 4.6+1.1% respectively.

[2] = test system: cancer derived cell lines; assay: XTT viability assay, all cell lines tested; format: cell-based, human; conditions: span over the cell lines
Description: MCF-10A cells were used as non-tumorigenic line and various cell lines derived from other types of solid tumors were compiled including colon (HCT116, HT29, SW480), prostate (PC3, DU145, LNCaP), lung (A549), osteosarcoma (U20S) and Melanoma (T11) cell lines. A non-adherent leukemic cancer cell line, K562, was also included to further diversify the cohort (FIG. 7).
(§2) Viability was assayed after 3 days (XTT, ATCC). IC50 concentrations are indicated (Table 3 above).

[3] = test system: MCF10A; conditions: 3 days
Description: Results are presented as Average±SD of replicate analyses and are either representative of, or inclusive of at least two independent experiments. Statistical analyses were performed using student's t-test (2-tailed, paired) versus vehicle controls and are regarded as being significant when P<0.05(*). Higher powers (p<0.01, p<0.001) are also employed and indicated in each figure legend. IC50 doses for strigolactone analogs were calculated by interpolation of the sigmoidal dose response curves (Graphpad Prism 4.0 software). Briefly, linear regression was performed between relevant y-axis data points and interpolation calculated for x-axis unknowns.
Cells were seeded into a 96 well plates at 1500 cells per well (MCF-10, PC3, DU145, MDA-MB-231, MDA-MB-436, HT-29, SW480), 1000 cells per well (K562) or 4000 cells per well (MCF-7, HCT116) in triplicate in normal growing media (with the exception of K562, a non-adherent leukemic cell line which was seeded in phenol-free DMEM supplemented with 10% charcoal-stripped FBS). The following day media was replaced with phenol-free DMEM supplemented with 10% charcoal stripped FBS and the indicated final concentrations of strigolactone analog or vehicle (acetone) alone. Cells were incubated for 3 days, at which time XTT (2,3,-bis(2-methoxy-4-nitro-5-sulfophenyl)-5-[(phenylamino)-carbonyl]-2H-tetrazolium inner salt) reduction was used to quantify viability according to manufacturer's instruction (ATCC). Cells were incubated with XTT reagent for 2-3 hours at 37° C. in a humidified 5% CO2-95% air atmosphere. Absorbance was recorded by a photometer [sequence]luor Plus, Tecan (Salzburg, Austria) at 450 nm with 750 nm of reference wavelength. Cell survival was estimated from the equation: % cell survival=100×(At−Ac), where At and Ac are the absorbencies (450 nm) of the XTT colorimetric reaction (ATCC) in treated and control cultures respectively minus non-specific absorption measured at 750 nm. Absorbance of medium alone was also deducted from specific readings.
MCF-10A cells were included as an example of a non-tumorigenic line. XTT viability assays were carried out in the presence of the indicated doses of strigolactone analogs following 3 days of treatment. Resulting differences in absorbance readings following strigolactone analogs treatment reflect changes in proliferation and cell survival (FIG. 7A-C): Cells were seeded into 96 well plates in normal growing media. The following day media was replaced with phenol-free DMEM supplemented with 10% charcoal-stripped serum and the indicated doses of strigolactone analog or vehicle (cont.) alone. Viability was assayed after 3 days (XTT, ATCC).

[4] = test system: MCF-7 mammospheres; assay: Mammosphere formation; format: cell-based, human; conditions: 5 ppm and above
Description: Adherent cells were gently trypsinized, (0.05% trypsin/EDTA) washed twice in PBS and filtered through a […] cell sieve to obtain a single cell suspensions. Cells were diluted to a concentration of 10,000 cell/ml in serum-free phenol-red free MEBM (MEGM Bulletkit, Lonza) supplemented with 5 μg/ml bovine insulin, 20 ng/ml recombinant epidermal growth factor, 20 ng/ml basic fibroblast growth factor (Gibco), 1×B27 supplement, 0.5 μg/ml hydrocortisone (MEGM Bulletkit, Lonza). For MDA-MB-231 mammosphere cultures serum-free phenol red-free CnT-27 medium with growth additives (CellnTEC Advanced cell systems, Bern, Switzerland) was used as previously described. 0.1 ml was seeded per well of a Ultralow attachment 96 well plates. The following day the indicated doses of GR-24 (ppm) or vehicle alone (0.6% acetone f/c) were added. Media was replenished every 3-4 days. Self-renewal capacity of the mammospheres was determined by re-plating and producing further generations of mammospheres. Secondary mammospheres were cultivated by dissociation (trypsinization with gently vortexing) of 10-14 day old primary mammospheres. Single cell suspensions were obtained as described above.
as §1

[5] = test system: DU145; assay: XTT viability assay; format: cell-based, human; conditions: DU145, 3 days
Description: as §2

[6] = test system: PC3; assay: XTT viability assay; format: cell-based, human; conditions: PC3, 3 days
Description: as §2

[7] = test system: K562; assay: XTT viability assay; format: cell-based, human; conditions: K562, 3 days
Description: as §2

[8] = test system: HCT116; assay: XTT viability assay; format: cell-based, human; conditions: HCT116, 3 days
Description: as §2

[9] = test system: MDA-MB-231; assay: XTT viability assay; format: cell-based, human; conditions: MDA-MB-231, 3 days
Description: as §2

[10] = test system: LNCaP; assay: XTT viability assay; format: cell-based, human; conditions: 3 days
Description: as §2

[11] = test system: MCF-7; assay: XTT viability assay; format: cell-based, human; conditions: MCF-7, 3 days
Description: as §2

[12] = test system: HT-29; assay: XTT viability assay; format: cell-based, human; conditions: HT-29, 3 days
Description: as §2

[13] = test system: MDA-MB-436; assay: XTT viability assay; format: cell-based, human; conditions: MDA-MB-436, 3 days
Description: as §2

[14] = test system: SW480; assay: XTT viability assay; format: cell-based, human; conditions: SW480, 3 days
Description: as §2

[15] = test system: U20S; assay: XTT viability assay; format: cell-based, human; conditions: 3 days
Description: as §2

[16] = test system: T47D; assay: XTT viability assay; format: cell-based, human; conditions: 3 days
Description: as §2

[17] = test system: HCT116 cells; assay: Annexin V / PI staining; format: cell-based, human; conditions: 48 hours, from 3.6%
Description: Cells were cultured for 48 hours under the same conditions as those used for the DNA content/cell cycle analysis. All the cells were collected and resuspended in 100 μl 1× Annexin V Binding Buffer (BD Biosciences, San Jose, Calif., USA). 2 μl FITC-Annexin V (BD Biosciences) was added and incubated for 10 min in the dark (room temperature). Cells were then stained with PI (Sigma, Saint Louis, Mo., USA) to a final concentration of 5 μg/ml and the cells were incubated at room temperature for 15 min in the dark. Then, 400 μl of Annexin V binding buffer were added and flow cytometry was performed using a BD FACSCalibur flow cytometer. Cells were considered to be apoptotic if they were Annexin V+/PI− (early apoptotic) and Annexin V+/PI+ (late apoptotic). Each analysis was performed using at least 20,000 events.
Chromosome condensation at mitosis is accompanied by phosphorylation of histone H3. Accordingly, in order to determine if cells were arresting at G2 or M phase, HCT116 cells were analyzed for pS10 Histone H3 following strigolactone analogs exposure. […] To further quantify whether the growth inhibition observed in-vitro following strigolactone treatment was due in part to apoptosis, HCT116 cells were dual stained with Annexin V and PI (Prodidium Iodide). Annexin V staining indicate the inversion of the inner leaflet of the plasma membrane an early event of apoptosis. Late apoptosis is characterized by loss of membrane integrity and cells become permeable to PI. […] Cells were incubated for 48 hours and then co-stained with annexin-V and PI (FIG. 12F). Following treatment with 10 ppm and 15 ppm MEB-55, the percentage of late apoptotic cell increased from 3.6% to 62% and 85% respectively (FIG. 12F, lower panel). […] Dual Annexin V/PI staining analysis was also carried out on two other colon cancer cell lines, (SW480, HT29) following strigolactone treatment. Increased apoptosis was also observed in these lines following MEB-55 treatment in a dose dependent manner (FIG. 12D).

[18] = test system: P38; assay: Immunoblot of HSP27 phosphorylation with P38 inhibitor; format: cell-based, human; conditions: MDA-231 cells, 2 μM and 10 μM, 1 hour pretreatment
[19] = test system: MDA-231 cells; assay: Combination with cisplatin, Combination Index (Chou and Talalay); format: cell-based, human; conditions: cisplatin line of Table 8
Description: To determine if these concentrations of ST-362 can enhance the efficacy of low doses of cisplatin, MDA-231 cells were treated with varying concentrations of cisplatin in the presence of ST-362 IC50 and IC20 concentrations. The combination of ST-362 with low doses of cisplatin ranging for 0.01 to 0.1 μM produced a greater effect than each of the drugs alone (FIG. 20).

IC50 concentration over all cell lines tested [2]: 10-15 ppm | IC50 at 72 h [5]: 15 ppm | IC50 at 72 h [6]: >15 ppm | IC50 at 72 h [7]: >15 ppm | IC50 at 72 h [8]: >15 ppm | IC50 at 72 h [9]: >10 ppm | IC50 at 72 h [10]: >20 ppm | IC50 at 72 h [11]: 17.3 ppm | IC50 at 72 h [12]: >15 ppm | IC50 at 72 h [13]: >10 ppm | IC50 at 72 h [14]: >15 ppm | IC50 at 72 h [16]: >10 ppm
Structure (SMILES): CC1=CC(O/C=C2\Cc3c(n(C)c4ccc(-c5ccc(N(C)C)cc5)cc34)C2=O)OC1=O (racemic) [EG-9c, (±) (2E)-4-methyl-2-(4-methyl-5-oxo-2,5-dihydrofuran-2-yloxymethylene)-7-[(4-dimethylamino)-phenyl]-1,4-dihydro-2H-cyclopenta[b]indol-3-one]
Mammosphere morphology ([1]; 2.5-5 ppm, after 48 hours): less dramatic morphological change | Mammosphere numbers (>100 μM), percentage of vehicle treated control ([1]; 2.5 ppm): 52+12.3% | Mammosphere numbers (>100 μM), percentage of vehicle treated control ([1]; 5 ppm, vehicle control 86.7+6.8): 38+6.2% | IC50 at 72 h [3]: >15 ppm | Mammosphere formation [4]: completely block mammosphere formation | IC50 at 72 h [15]: 4.5 ppm | Percentage of late apoptotic cells (Annexin V+/PI+) ([17]; 10 ppm): 12.5% | Percentage of late apoptotic cells (Annexin V+/PI+) ([17]; 15 ppm): 43.3%

Structure (SMILES): C[S+]([O-])c1ccc(-c2nc(-c3ccncc3)c(-c3ccc(F)cc3)[nH]2)cc1 (stereo not shown) [SB203580]
HSP27 phosphorylation induced by ST-362 and MEB-55 [18]: sufficient to inhibit HSP27 phosphorylation

Structure (SMILES): N.N.[Cl][Pt][Cl] [Cisplatin, cisplatin]
CI [19]: 0.8
